Experiments:
Format in all cases: biochemical
full-length human PHD1 = target: T1, full-length human PHD1 (Homo sapiens, UniProt Q96KS0); assay: TR-FRET assay for PHD enzymes, PHD1
T1 construct: FLAG (N); purchased Active Motif (Carlsbad, Calif., USA) 81064; host or cells: baculovirus expression system
Description: (§1) The resulting proximity of the donor fluorophore complex, monoclonal antibody anti-6His-Terbium (Tb)-cryptate Gold, bound to the His-tagged VHL protein, EloB, EloC complex (His-VBC) and the acceptor fluorophore, SA-D2 complex, bound to HIF-1α-hydroxyproline results in a fluorescence resonance energy transfer signal that can be detected and quantified
Recombinant human PHD1 protein (catalog #81064, Lot #24717001) was purchased from Active Motif (Carlsbad, Calif., USA). PHD1 was expressed in a baculovirus expression system as the full-length protein (NCBI accession number NP_542770.2) with an N-terminal FLAG tag (molecular weight 44.9 kDa). Purity (>90%) was assessed by SDS-PAGE.
(§2) For this, 5 μL PHD inhibitor compound was serially diluted with dilution buffer (50 mM HEPES [4-(2-hydroxyethyl)-1-piperazineethanesulfonic acid] pH 7.5, 50 mM sodium chloride [NaCl], 0.01% Tween-20, 0.01% purified bovine serum albumin [BSA]) and mixed with 5 μL PHD enzyme mix prepared as a 4× concentrate in the dilution buffer containing PHD enzyme (60 nM PHD1, 20 nM PHD2, 140 nM PHD3), 40 μM ferrous ammonium sulfate (FAS), 4 mM sodium (Na) ascorbate.
(§3) The IC50 values (mean, standard deviation, standard error of the mean, geometric mean and 95% confidence interval) were determined using a four-parameter curve-fit using GraphPad Prism 7.0 (GraphPad, La Jolla, Calif., USA) and represent the compound concentration plotted against the calculated ratio of 665 nm and 615 nm.

full-length human PHD2 = target: T2, full-length human PHD2 (Homo sapiens, UniProt Q9GZT9); assay: TR-FRET assay for PHD enzymes, PHD2; conditions: read-out: PHD2 IC5 0
T2 construct: The PHD2 construct contained amino acids 1 to 426 of PHD2; His tag (N, cleaved yes); TEV protease cleavage site (N, cleaved yes); host or cells: Sf9 insect cells (baculovirus)
T2 sequence (Q9GZT9 whole entry, the tested form may be a part): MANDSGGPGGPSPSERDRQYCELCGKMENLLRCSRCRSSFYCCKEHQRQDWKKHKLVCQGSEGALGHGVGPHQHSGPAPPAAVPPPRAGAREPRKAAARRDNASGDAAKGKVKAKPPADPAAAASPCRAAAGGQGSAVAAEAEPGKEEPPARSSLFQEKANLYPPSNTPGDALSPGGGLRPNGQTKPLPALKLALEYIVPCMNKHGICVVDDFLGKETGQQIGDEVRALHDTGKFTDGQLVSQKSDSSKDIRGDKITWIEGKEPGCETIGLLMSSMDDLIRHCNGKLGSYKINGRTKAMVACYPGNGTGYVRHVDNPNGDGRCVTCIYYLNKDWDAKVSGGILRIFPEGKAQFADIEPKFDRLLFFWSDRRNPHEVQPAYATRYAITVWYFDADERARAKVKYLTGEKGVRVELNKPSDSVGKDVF
Protocol: as §1, §2, §3

full-length human PHD3 = target: T3, full-length human PHD3 (Homo sapiens, UniProt Q9H6Z9); assay: TR-FRET assay for PHD enzymes, PHD3
T3 construct: 6-His (N); purchased Active Motif (Carlsbad, Calif., USA) 81033; host or cells: E. coli
T3 sequence (Q9H6Z9 whole entry): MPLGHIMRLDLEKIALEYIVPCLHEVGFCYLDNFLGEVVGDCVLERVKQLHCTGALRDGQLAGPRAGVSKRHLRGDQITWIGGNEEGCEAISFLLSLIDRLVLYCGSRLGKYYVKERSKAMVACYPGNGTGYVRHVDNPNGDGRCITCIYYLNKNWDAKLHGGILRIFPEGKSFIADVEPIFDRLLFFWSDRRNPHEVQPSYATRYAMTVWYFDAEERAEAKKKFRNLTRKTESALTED
Description: as §1
Recombinant human PHD3 protein (molecular weight 31.1 kDa) was purchased from Active Motif (Carlsbad, Calif., USA). It was expressed in E. coli as the full-length protein (NCBI accession number NP_071356.1) with an N-terminal 6-His tag (catalog #81033, Lot #24417001).
as §2, §3

T1 sequence (Q96KS0 whole entry): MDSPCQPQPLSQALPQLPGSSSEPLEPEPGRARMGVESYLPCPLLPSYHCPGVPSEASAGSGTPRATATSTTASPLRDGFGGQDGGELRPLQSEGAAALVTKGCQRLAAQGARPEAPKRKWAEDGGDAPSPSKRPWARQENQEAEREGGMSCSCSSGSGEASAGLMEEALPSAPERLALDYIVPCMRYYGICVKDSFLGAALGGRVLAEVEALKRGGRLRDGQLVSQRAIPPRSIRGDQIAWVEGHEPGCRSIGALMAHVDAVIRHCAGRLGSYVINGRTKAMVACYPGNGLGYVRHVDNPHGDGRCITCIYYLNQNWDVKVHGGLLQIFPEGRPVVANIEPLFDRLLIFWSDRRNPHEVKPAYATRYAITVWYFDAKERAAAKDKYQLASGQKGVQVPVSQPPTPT

SMILES | IC50 (full-length human PHD1) [nM] | IC50 (full-length human PHD2) [nM] | IC50 (full-length human PHD3) [nM]
Cc1nn(-c2ccc(C(=O)O)cn2)c(O)c1-c1ccc(C#N)c(F)c1 [Compound 23, 6-(4-(4-cyano-3-fluorophenyl)-5-hydroxy-3-methyl-1H-pyrazol-1-yl)nicotinic acid] | < 100 | < 100 | 
N#Cc1ccc(-c2cnn(-c3ccc(C(=O)O)cn3)c2O)c(O)c1 [Compound 21, 6-(4-(4-cyano-2-hydroxyphenyl)-5-hydroxy-1H-pyrazol-1-yl)nicotinic acid] | < 100 | < 100 | 100 to 1000
O=C(O)c1ccc(-n2ncc(-c3ccc(Br)cc3)c2O)nc1 [Compound 3, 6-(4-(4-Bromophenyl)-5-hydroxy-1H-pyrazol-1-yl) nicotinic acid] | < 100 | < 100 | 100 to 1000
Cc1cc(C#N)cc(C)c1-c1cnn(-c2ccc(C(=O)O)cn2)c1O [Compound 31, 6-(4-(4-cyano-2,6-dimethylphenyl)-5-hydroxy-1H-pyrazol-1-yl)nicotinic acid] | < 100 | 100 to 1000 | 
Cc1nn(-c2cnc(C(=O)O)cn2)c(O)c1-c1ccc(C#N)cc1 [Compound 34, 5-(4-(4-cyanophenyl)-5-hydroxy-3-methyl-1H-pyrazol-1-yl)pyrazine-2-carboxylic acid] | < 100 | < 100 | 
Cc1nn(-c2ccc(C(=O)O)cn2)c(O)c1-c1ccc(C#N)cc1 [Compound 9, 6-(4-(4-Cyanophenyl)-5-hydroxy-3-methyl-1H-pyrazol-1-yl)nicotinic acid] | < 100 | < 100 | < 100
Cc1nn(-c2ccc(C(=O)O)cn2)c(O)c1-c1cc[n+]([O-])cc1 [Compound 41, 4-(1-(5-carboxypyridin-2-yl)-5-hydroxy-3-methyl-1H-pyrazol-4-yl)pyridine 1-oxide] | ≥ 10000 | ≥ 10000 | 
CC(C)OC(=O)c1ccc(-n2ncc(-c3ccc(C#N)cc3)c2O)nc1 [Compound 37, Isopropyl 6-(4-(4-cyanophenyl)-5-hydroxy-1H-pyrazol-1-yl)nicotinate] | < 100 | < 100 | < 100
Cc1nn(-c2ccc(C(=O)O)cn2)c(O)c1-c1ccc(C#N)c(Cl)c1 [Compound 44, 6-(4-(3-chloro-4-cyanophenyl)-5-hydroxy-3-methyl-1H-pyrazol-1-yl)nicotinic acid] | < 100 | < 100 | 
N#Cc1ccc(-c2cnn(-c3ccc(C(=O)O)cn3)c2O)c(C(F)(F)F)c1 [Compound 40, 6-(4-(4-cyano-2-(trifluoromethyl)phenyl)-5-hydroxy-1H-pyrazol-1-yl)nicotinic acid] | < 100 | < 100 | 
Cc1nn(-c2ccc(C(=O)O)cn2)c(O)c1-c1ccc(Cl)cc1F [Compound 28, 6-(4-(4-chloro-2-fluorophenyl)-5-hydroxy-3-methyl-1H-pyrazol-1-yl)nicotinic acid] | < 100 | 100 to 1000 | 100 to 1000
CC(C)(C)OC(=O)c1ccc(-n2ncc(-c3ccc(Cl)cc3)c2O)nc1 [Compound 4, Tert-butyl 6-(4-(4-chlorophenyl)-5-hydroxy-1H-pyrazol-1-yl)nicotinate] | 100 to 1000 | 1000 to 10000 | 
CCOC(=O)c1ccc(-n2ncc(-c3ccc(C#N)cc3)c2O)nc1 [Compound 36, Ethyl 6-(4-(4-cyanophenyl)-5-hydroxy-1H-pyrazol-1-yl)nicotinate] | < 100 | < 100 | < 100
Cc1nn(-c2ccc(C(=O)O)cn2)c(O)c1-c1ccc(Cl)cc1 [Compound 15] | < 100 | < 100 | 
Cc1cc(C#N)ccc1-c1c(C)nn(-c2ccc(C(=O)O)cn2)c1O [Compound 24, 6-(4-(4-cyano-2-methylphenyl)-5-hydroxy-3-methyl-1H-pyrazol-1-yl)nicotinic acid] | < 100 | < 100 | < 100
CCc1cc(C#N)ccc1-c1cnn(-c2ccc(C(=O)O)cn2)c1O [Compound 33, 6-(4-(4-cyano-2-ethylphenyl)-5-hydroxy-1H-pyrazol-1-yl)nicotinic acid] | < 100 | < 100 | 
Cc1nn(-c2ccc(C(=O)O)cn2)c(O)c1-c1ccc(Cl)c(C#N)c1 [Compound 42, 6-(4-(4-chloro-3-cyanophenyl)-5-hydroxy-3-methyl-1H-pyrazol-1-yl)nicotinic acid] | < 100 | < 100 | 

SMILES | IC50 (full-length human PHD1) [nM] | IC50 (full-length human PHD2) [nM] | IC50 (full-length human PHD3) [nM]
CC(C)(C)OC(=O)c1ccc(-n2ncc(-c3ccc(C#N)cc3)c2O)nc1 [Compound 38, Tert-butyl 6-(4-(4-cyanophenyl)-5-hydroxy-1H-pyrazol-1-yl)nicotinate] | < 100 | < 100 | 1000 to 10000
CC(C)(C)OC(=O)c1ccc(-n2ncc(-c3ccc(Br)cc3)c2O)nc1 [Compound 2, Tert-butyl 6-(4-(4-bromophenyl)-5-hydroxy-1H-pyrazol-1-yl)nicotinate] | 100 to 1000 | ≥ 10000 | 
COc1ccc(-c2c(C)nn(-c3ccc(C(=O)O)cn3)c2O)cc1C [Compound 32, 6-(5-hydroxy-4-(4-methoxy-3-methylphenyl)-3-methyl-1H-pyrazol-1-yl)nicotinic acid] | 100 to 1000 | 100 to 1000 | 
COc1cc(-c2cnn(-c3ccc(C(=O)OC(C)(C)C)cn3)c2O)ccn1 [Compound 35, Tert-butyl 6-(5-hydroxy-4-(2-methoxypyridin-4-yl)-1H-pyrazol-1-yl)nicotinate] | < 100 | < 100 | < 100
Cc1ccc(-c2cnn(-c3ccc(C(=O)OC(C)(C)C)cn3)c2O)cc1 [Compound 1, Tert-butyl 6-(5-hydroxy-4-(p-tolyl)-1H-pyrazol-1-yl)nicotinate] | 100 to 1000 | 1000 to 10000 | 
COC(=O)c1ccc(-n2nc(C)c(-c3ccc(C#N)cc3)c2O)nc1 [Compound 11, Methyl 6-(4-(4-cyanophenyl)-5-hydroxy-3-methyl-1H-pyrazol-1-yl)nicotinate] | < 100 | < 100 | 100 to 1000
N#Cc1ccc(-c2cnn(-c3ncc(C(=O)O)cc3F)c2O)cc1 [Compound 14, 6-(4-(4-cyanophenyl)-5-hydroxy-1H-pyrazol-1-yl)-5-fluoronicotinic acid] | 1000 to 10000 | 1000 to 10000 | 
Cc1cc(-c2c(C)nn(-c3ccc(C(=O)O)cn3)c2O)ccc1C#N [Compound 29, 6-(4-(4-cyano-3-methylphenyl)-5-hydroxy-3-methyl-1H-pyrazol-1-yl)nicotinic acid] | < 100 | < 100 | 
N#Cc1ccc(-c2cnn(-c3ccc(C(=O)O)cn3)c2O)c(Cl)c1 [Compound 30, 6-(4-(2-chloro-4-cyanophenyl)-5-hydroxy-1H-pyrazol-1-yl)nicotinic acid] | < 100 | < 100 | 
Cc1nn(-c2cc(N)c(C(=O)O)cn2)c(O)c1-c1ccc(C#N)cc1 [Compound 27, 4-amino-6-(4-(4-cyanophenyl)-5-hydroxy-3-methyl-1H-pyrazol-1-yl)nicotinic acid] | < 100 | < 100 | 
Cc1nc(-n2nc(C)c(-c3ccc(C#N)cc3)c2O)ccc1C(=O)O [Compound 19, 6-(4-(4-cyanophenyl)-5-hydroxy-3-methyl-1H-pyrazol-1-yl)-2-methylnicotinic acid] | 1000 to 10000 | 1000 to 10000 | 
COc1ccc(-c2cnn(-c3ccc(C(=O)O)cn3)c2O)cn1 [Compound 43, 6-(5-Hydroxy-4-(6-methoxypyridin-3-yl)-1H-pyrazol-1-yl)nicotinic acid] | < 100 | < 100 | 
Cc1nn(-c2ccc(C(=O)O)cn2)c(O)c1-c1ccc(Cl)cn1 [Compound 20, 6-(4-(5-chloropyridin-2-yl)-5-hydroxy-3-methyl-1H-pyrazol-1-yl)nicotinic acid] | < 100 | 100 to 1000 | 
O=C(O)c1ccc(-n2ncc(-c3ccc(Cl)c(O)c3)c2O)nc1 [Compound 22, 6-(4-(4-chloro-3-hydroxyphenyl)-5-hydroxy-1H-pyrazol-1-yl)nicotinic acid] | < 100 | < 100 | 
CC(C)(C)OC(=O)c1ccc(-n2ncc(-c3ccc(F)cc3)c2O)nc1 [Compound 6, Tert-butyl 6-(4-(4-fluorophenyl)-5-hydroxy-1H-pyrazol-1-yl)nicotinate] | < 100 | 1000 to 10000 | 
Cc1nn(-c2ccc(C(=O)O)cn2)c(O)c1-c1ccc(C#N)cc1F [Compound 25, 6-(4-(4-cyano-2-fluorophenyl)-5-hydroxy-3-methyl-1H-pyrazol-1-yl)nicotinic acid] | < 100 | < 100 | 

— patent publication US20230227426A1 (Akebia Therapeutics, Inc., priority 2020, published 2023)
